Experimental findings from patent US5677336A, “Non-steroid androgen receptor antagonist compounds and methods” (Ligand Pharmaceuticals Incorporated, priority 1993, dated 1997) are described below.

Test [1] addresses T1, androgen receptor (Homo sapiens, UniProt P10275).
T1 construct: expressed in transfected cells; host or cells: CV-1 (monkey kidney fibroblast) cells, plasmid pRShAR, with reporter plasmid MTV-LUC
T1 sequence (P10275 1-920): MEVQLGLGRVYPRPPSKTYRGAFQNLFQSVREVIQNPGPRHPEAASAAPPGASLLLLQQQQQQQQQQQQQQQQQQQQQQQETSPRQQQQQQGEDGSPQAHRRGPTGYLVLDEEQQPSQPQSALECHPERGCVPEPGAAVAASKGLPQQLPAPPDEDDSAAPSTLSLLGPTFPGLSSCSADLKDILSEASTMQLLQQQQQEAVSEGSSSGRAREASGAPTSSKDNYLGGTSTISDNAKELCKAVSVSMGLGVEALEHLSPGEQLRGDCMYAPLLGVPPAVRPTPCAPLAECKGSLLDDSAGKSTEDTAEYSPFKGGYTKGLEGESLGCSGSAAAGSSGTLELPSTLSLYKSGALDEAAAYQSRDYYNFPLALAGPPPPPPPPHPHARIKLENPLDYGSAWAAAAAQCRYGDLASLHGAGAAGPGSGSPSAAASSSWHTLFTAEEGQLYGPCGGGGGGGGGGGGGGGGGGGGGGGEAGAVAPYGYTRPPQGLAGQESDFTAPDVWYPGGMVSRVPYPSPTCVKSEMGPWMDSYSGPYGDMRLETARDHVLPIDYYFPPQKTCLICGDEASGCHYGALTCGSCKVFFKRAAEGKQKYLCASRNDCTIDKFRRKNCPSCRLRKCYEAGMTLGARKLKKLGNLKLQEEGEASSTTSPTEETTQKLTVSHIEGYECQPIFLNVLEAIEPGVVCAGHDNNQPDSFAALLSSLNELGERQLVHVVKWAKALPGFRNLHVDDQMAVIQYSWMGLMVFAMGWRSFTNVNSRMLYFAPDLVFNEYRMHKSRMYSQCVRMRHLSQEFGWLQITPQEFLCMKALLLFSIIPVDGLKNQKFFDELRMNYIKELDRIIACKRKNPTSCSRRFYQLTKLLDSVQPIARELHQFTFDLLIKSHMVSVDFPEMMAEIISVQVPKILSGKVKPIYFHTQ
The experiment in a line: Co-transfection androgen antagonist assay (CV-1 cells, pRShAR, MTV-LUC reporter; AR-wt). The following applies: for IC50: read-out: Potency (IC50, concentration required to reduce the maximal response by 50%). It is filed as cell-based. The text has this:
The co-transfection assay provides a method for identifying functional ligands (either agonists which mimic, or antagonists which inhibit, the effect of hormones), and quantifying their activity for ligand-responsive receptor proteins. In this regard, the co-transfection assay mimics an in vivo system in the laboratory. Importantly, activity in the co-transfection assay correlates very well with known in vivo activity, such that the co-transfection assay functions as a quantitative predicator of a tested compounds in vivo pharmacology. See, e.g., T. Berger et al. 41 J. Steroid Biochem. Molec.
(§1) In the co-transfection assay, a cloned gene for an intracellular receptor (e.g., androgen receptor) is introduced by transfection (a procedure to induce cells to take up foreign genes) into a background cell substantially devoid of endogenous intracellular receptors. This introduced gene directs the recipient cells to make the intracellular receptor protein. A second gene is also introduced (co-transfected) into the same cells in conjunction with the intracellular receptor gene. This second gene functions as a reporter for the transcription-modulating activity of the target intracellular receptor. Thus, the reporter acts as a surrogate for the products normally expressed by a gene under control of the target receptor and its natural hormone. A preferred reporter gene is one which expresses the firefly enzyme luciferase.
(§2) The co-transfection assay can detect small molecule agonists or antagonists of target intracellular receptors. Exposing the cells to an agonist ligand increases reporter activity in the transfected cells. This activity can be conveniently measured, e.g., by increasing luciferase production, which reflects ligand-dependent, intracellular receptor-mediated increases in reporter transcription. To detect antagonists, the co-transfection assay is carried out in the presence of a constant concentration of an agonist (e.g., for androgen receptor, dihydrotestosterone) known to induce a defined reporter signal. Increasing concentrations of a test antagonist will decrease the reporter signal (e.g., luciferase production). The co-transfection assay is therefore useful to detect both agonists and antagonists of specific intracellular receptors. It determines not only whether a compound interacts with a particular intracellular receptor, but whether this interaction mimics (agonizes) or blocks (antagonizes) the effects of the natural regulatory molecules on target gene expression, as well as the specificity and strength of this interaction.
Co-transfected cells are exposed to a medium to which is added the potential ligand (compound) that is being evaluated. If the candidate compound diffuses into the cell, binds to the receptor, and the resulting receptor complex functions as an agonist, it will subsequently bind to the co-transfected reporter gene and initiate transcription. Typically, the reporter gene is one that expresses luciferase, which is capable of catalyzing a light-emitting reaction with its substrate luciferin. Thus, after cell lysis and the introduction of luciferin, the amount of light produced relative to the concentration of candidate compound used in the assay provides a measure of the potency and efficacy of the compound tested. Antagonist activity is evaluated by adding the candidate ligand and a known agonist to the co-transfected cells. […]

In test [2] the test system is progesterone receptor (PR-TI). The experiment in a line: Antagonist activity on progesterone receptor, CV-1 cells cotransfected with pRShPR-B altered at Tau-1 (PR-TI). The class given is cell-based, human. The settings on record: Table 2, CV-1 cells PR-TI; for Efficacy, PR-TI (% maximal response): comparable to that found with RU-486; for IC50: read-out: Potency, PR-TI (IC50).
Description: as §1, §2
Co-transfected cells are exposed to a medium to which is added the potential ligand (compound) that is being evaluated. If the candidate compound diffuses into the cell, binds to the receptor, and the resulting receptor complex functions as an agonist, it will subsequently bind to the co-transfected reporter gene and initiate transcription. Typically, the reporter gene is one that expresses luciferase, which is capable of catalyzing a light-emitting reaction with its substrate luciferin. Thus, after cell lysis and the introduction of luciferin, the amount of light produced relative to the concentration of candidate compound used in the assay provides a measure of the potency and efficacy of the compound tested. Antagonist activity is evaluated by adding the candidate ligand and a known agonist to the co-transfected cells.
The specific activity of Compounds A-J was compared relative to their antagonist activity on the human progesterone receptor (PR) utilizing CV-1 cells cotransfected with plasmid pRShPR-B, as altered at the Tau-1 location (e.g., PR-TI)[specifically, hPR-B was excised from the vector pGEM3Z (69 Cell 703 (1992)); the Tau-1 fragment of the gluccocorticoid receptor was inserted into hPR-B at the unique HincII site in the N-terminal region; a Bst EII to BST bI fragment spanning the Tau-1 insertion was then used to replace the corresponding region in pRShPR-B]. […] Potency or IC50 is as reported for AR-wt transfected CV-1 cells.

Where [3] appears, read: CV-1, Table 1, androgen antagonists, relative to 2-Hydroxy-flutamide, read-out: Efficacy (% maximal response relative to 2-Hydroxy-flutamide).
[4] abbreviates: Table 2, CV-1 cells AR-wt, read-out: Efficacy, AR-wt.

Each structure is given as a SMILES string. Where two headings read alike, the source gives them in different places.

Take `C=C1[C@@H](Cc2cc(OC)c(Br)cc2O)C(C)(C)CC[C@@H]1O` [B, (1S,3S)-1-Hydroxy-2-methylidene-3-(2'-hydroxy-4'-bromo-5'-methoxyphenyl)methyl-4,4-dimethylcyclohexane]: the Emax in test [1] (setting [3]) and in test [1] (setting [4]) was 85% each time. The IC50 is 180 nM in test [1] (Table 1, androgen antagonists) and 865 nM in test [2]. The “Efficacy, PR-TI (% maximal response)” value in test [2] is 98%.
For `C=C1C=CCC(C)(C)C1Cc1ccccc1O` (stereo not drawn) [C, 1-Methylidene-6-(2'-hydroxyphenyl)methyl-5,5-dimethylcyclohex-2-ene], the Emax in test [1] (setting [3]) and in test [1] (setting [4]) was 82% in each case. Besides, the IC50 in test [1] (Table 1, androgen antagonists) was 210 nM; in test [2], more than 10000 nM. In test [2], the “Efficacy, PR-TI (% maximal response)” value was 20%.
With `C=C1CCCC(C)(C)C1Cc1ccccc1O` (stereo not drawn) [D], the Emax in test [1] (setting [3]) and in test [1] (setting [4]) was 92% throughout. Moreover, the IC50 in test [1] (Table 1, androgen antagonists) worked out at 220 nM; in test [2], 3500 nM. Also, the “Efficacy, PR-TI (% maximal response)” value in test [2] turned out to be 73%.
With `C=C1C[C@H](C)CC(C)(C)[C@@H]1Cc1cc(OC)c(Br)cc1O` (relative stereo) [S, cis-1Methylidene-2-(2'-hydroxy-4'-bromo-5'-methoxyphenyl)methyl-3,3,5-trimethyl-cyclohexane], the Emax in test [1] (setting [3]) is 92%. In addition, the IC50 in test [1] (Table 1, androgen antagonists) was 500 nM.
For `COc1cc(C[C@@H]2CCCC[C@@]2(C)O)c(O)cc1Br` (relative stereo) [Q, trans-1-Methyl-2-(2'-hydroxy-4'-bromo-5'-methoxyphenyl)methylcyclohexan-1-ol] the same measures were 94% and 460 nM.
As to `C=C1C=CCC(C)(C)C1Cc1cccc([N+](=O)[O-])c1` (stereo not drawn) [Compound A, 1-Methylidene-6-(3'-nitrophenyl)methyl-5,5-dimethylcyclohex-2-ene], the Emax in test [1] (setting [3]) and in test [1] (setting [4]) was 69% throughout. In addition, the IC50 was found to be 66 nM in test [1] (Table 1, androgen antagonists) and 3800 nM in test [2]. For the same molecule, the “Efficacy, PR-TI (% maximal response)” value in test [2] amounted to 45%.
With `C=C1C=C(C)CC(C)(C)C1Cc1ccc([N+](=O)[O-])c(C)c1` (stereo not drawn) [U, 1-Methylidene-6-(3'-methyl-4'-nitrophenyl)methyl-3,5,5-trimethylcyclohex-2-ene], the Emax in test [1] (setting [3]) came out at 69%. The IC50 in test [1] (Table 1, androgen antagonists) is 565 nM.
With `C=C1C=CCC(C)(C)C1Cc1cc(OC)c(Br)cc1OC(C)=O` (stereo not drawn) [F], the Emax in test [1] (setting [3]) and in test [1] (setting [4]) was 87% in each case. For the same molecule, the IC50 in test [1] (Table 1, androgen antagonists) worked out at 240 nM; in test [2], 820 nM. In test [2], the “Efficacy, PR-TI (% maximal response)” value amounted to 53%.
Turning to `C=C1[C@@H](Cc2cc(OC)c(Br)cc2O)C(C)(C)CC[C@]1(C)O` [J, (1S,3S)-1-Hydroxy-2-methylidene-3-(2'-hydroxy-4'-bromo-5'-methoxyphenyl)methyl-1,4,4-trimethylcyclohexane], the Emax in test [1] (setting [3]) and in test [1] (setting [4]) was 85% throughout. In addition, the IC50 was 300 nM in test [1] (Table 1, androgen antagonists) and 850 nM in test [2]. Also, in test [2], the “Efficacy, PR-TI (% maximal response)” value is listed as 95%.
For `C=C1C=C(C)C[C@@H](C)[C@@H]1Cc1cc(OC)c(Br)cc1OC(C)=O` [O, (5R,6S)-1-Methylidene-6-(2'-acetoxy-4'-bromo-5 '-methoxyphenyl)methyl-3,5-dimethyl-cyclohex-2-ene], the Emax in test [1] (setting [3]) turned out to be 78%. In test [1] (Table 1, androgen antagonists), the IC50 was found to be 390 nM.
For `C=C1C=CC[C@@H](C)[C@@H]1Cc1cc(OC)c(Br)cc1OC(C)=O` [L, (5R,6S)-1-Methylidene-6-(2'-acetoxy-4'-bromo-5'-methoxyphenyl)methyl-5-methylcyclohex-2-ene] the same measures were 88% and 370 nM.
As for `C=C1C=CCC(C)(C)C1Cc1cc(OC)c(Br)cc1O` (stereo not drawn) [W, 1-Methylidene-6-(2'-hydroxy-4'-bromo-5'-methoxyphenyl)methyl-5,5-dimethylcyclo-hex-2-ene], the Emax in test [1] (setting [3]) is 89%. For the same molecule, in test [1] (Table 1, androgen antagonists), the IC50 turned out to be 610 nM.
For `CC1(C)CCCC(=O)C1Cc1ccc([N+](=O)[O-])cc1` (stereo not drawn) [V, 2-(4'-Nitrophenyl)methyl-3.3-dimethylcyclohexan-1-one], in that order: 85% and 590 nM.
For `COc1cc(CC2CCCCC2=O)c(O)cc1Br` (stereo not drawn) [Y, 2-(2'-hydroxy-4'-bromo-5 '-methoxyphenyl)methylcyclohex-1-one], the Emax in test [1] (setting [3]) came to 67%. In addition, the IC50 in test [1] (Table 1, androgen antagonists) was determined as 340 nM.
For `C=C1CCC(C)(C)C1Cc1cc(OC)c(Br)cc1O` (stereo not drawn) [K, 1-Methylidene-2-(2'-hydroxy-4'-bromo-5'methoxyphenyl)methyl-3,3-dimethylcyclo-pentane], in that order: 91% and 330 nM.
Turning to `C=C1C=CCC(C)(C)C1Cc1ccc([N+](=O)[O-])c(C)c1` (stereo not drawn) [T, 1-Methylidene-6-(3'-methyl-4'-nitrophenyl)methyl-5,5-dimethylcyclohex-2-ene], in test [1] (setting [3]), the Emax came out at 88%. Moreover, the IC50 in test [1] (Table 1, androgen antagonists) stood at 545 nM.
For `C=C1[C@H](O)CCC(C)(C)[C@H]1Cc1cc(OC)c(Br)cc1O` [R, (1R,3R)-1-Hydroxy-2-methylidene-3-(2'-hydroxy-4'-bromo-5'-methoxyphenyl)methyl-4,4-dimethylcyclohexane], in that order: 70% and 500 nM.
For `C=C1[C@@H](Cc2cc(OC)c(Br)cc2O)C(C)(C)CC[C@@]1(C)O` [P, (1R,3S)-1-Hydroxy-2-methylidene-3-(2'-hydroxy-4'-bromo-5'-methoxyphenyl)methyl-1,4,4-trimethylcyclohexane] the same measures were 88% and 420 nM.
